Data reported in ChEMBL document CHEMBL1137593, “Identification and optimisation of a series of substituted 5-pyridin-2-yl-thiophene-2-hydroxamic acids as potent histone deacetylase (HDAC) inhibitors” (Bioorg Med Chem Lett, 2007).

Tested on: not listed separately
Experiment: Permeability (Papp) run from pH 6.5-7.4
Type: ADME, cell-based
Settings: human, Caco-2, pH 6.5

Compound	Papp [×10⁻⁶ cm/s]
O=C(NO)c1ccc(-c2ccc(CNCc3ccccc3)cn2)s1	15.4
O=C(CCCCCCC(=O)Nc1ccccc1)NO [VORINOSTAT]	8

Tested on: MCF7
Experiment: Inhibition of MCF7 cell proliferation (mean of two experiments)
Type: functional, cell-based
Settings: Homo sapiens

Compound	IC50 [nM]
O=C(NO)c1ccc(-c2ccc(CNCCc3ccc(F)cc3)cn2)s1	80
O=C(NO)c1ccc(-c2ccc(CNCCc3ccccc3F)cn2)s1	90
O=C(NO)c1ccc(-c2ccc(CNCc3ccc4c(c3)OCO4)cn2)s1	50
Cc1ccc(CCNCc2ccc(-c3ccc(C(=O)NO)s3)nc2)cc1	60
O=C(NO)c1ccc(-c2ccc(CCNCc3ccccc3)cn2)s1	80
O=C(NO)c1ccc(-c2ccc(CNCCc3cccc4occc34)cn2)s1	60
O=C(NO)c1ccc(-c2ccc(CNCCCc3ccccc3)cn2)s1	120
O=C(NO)c1ccc(-c2ccc(CNCCc3ccccc3)cn2)s1	70
O=C(NO)c1ccc(-c2ccc(CCNCc3ccc4c(c3)OCO4)cn2)s1	70

More lines, now with the values ahead:

IC50 [nM]	Compound
2250	O=C(NO)c1ccc(-c2ccccn2)s1
80	O=C(NO)c1ccc(-c2ccc(CNCc3ccccc3)cn2)s1
150	CN(Cc1ccccc1)Cc1ccc(-c2ccc(C(=O)NO)s2)nc1
31000	O=C(NO)c1ccc(-c2ccccc2)s1
> 100000	O=C(NO)c1ccc(-c2cccs2)s1
2120	O=C(NO)c1ccc(-c2ncccn2)s1
3840	O=C(NO)c1ccc(-c2cccc(CNCCc3ccccc3)n2)s1

Tested on: HCT-116;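 note: inhibition of HCT116 cell growth as proliferation read-out, each value averaged over two experiments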
Experiment: cells
Type: functional, cell-based
Settings: Homo sapiens
Description: Inhibition of HCT116 cell proliferation (mean of two experiments)

Compound	IC50 [nM]
O=C(NO)c1ccc(-c2ccc(CNCCc3ccc(F)cc3)cn2)s1	100
O=C(NO)c1ccc(-c2ccc(CNCCc3ccccc3F)cn2)s1	100
O=C(NO)c1ccc(-c2ccc(CNCc3ccc4c(c3)OCO4)cn2)s1	70
O=C(NO)c1ccc(-c2ccc(CNCc3ccccc3)cn2)s1	110
Cc1ccc(CCNCc2ccc(-c3ccc(C(=O)NO)s3)nc2)cc1	60
O=C(NO)c1ccc(-c2ccc(CNCCc3cccc4occc34)cn2)s1	120
O=C(NO)c1ccc(-c2ccc(CCNCc3ccc4c(c3)OCO4)cn2)s1	110

Tested on: MDA-MB-231
Experiment: cells
Type: functional, cell-based
Settings: Homo sapiens
Description: Inhibition of MDA-MB-231 cell proliferation (mean of two experiments)

Compound	IC50 [nM]
O=C(NO)c1ccc(-c2ccc(CCNCc3ccccc3)cn2)s1	210
O=C(NO)c1ccc(-c2ccc(CNCCCc3ccccc3)cn2)s1	250
O=C(NO)c1ccc(-c2ccc(CNCCc3ccccc3)cn2)s1	200

More lines, now with the values ahead:

IC50 [nM]	Compound
11000	O=C(NO)c1ccc(-c2ccccn2)s1
220	O=C(NO)c1ccc(-c2ccc(CNCc3ccccc3)cn2)s1
370	CN(Cc1ccccc1)Cc1ccc(-c2ccc(C(=O)NO)s2)nc1

Tested on: not listed separately
Experiment: Microsome stability: percent compound remaining
Type: ADME
Settings: human, microsomes

Compound	Percent remaining [%]	%R [%]
O=C(NO)c1ccc(-c2ccc(CNCc3ccccc3)cn2)s1	88	–
O=C(CCCCCCC(=O)Nc1ccccc1)NO [VORINOSTAT]	–	97

Same assay, conditions: mouse, microsomes

Compound	Percent remaining [%]	%R [%]
O=C(NO)c1ccc(-c2ccc(CNCc3ccccc3)cn2)s1	35	–
O=C(CCCCCCC(=O)Nc1ccccc1)NO [VORINOSTAT]	–	114

Tested on: not listed separately
Experiment: Hepatocyte stability
Type: ADME, cell-based
Settings: human, hepatocytes

Compound	Hepatocyte stability [uL/min/10e6 cells]
O=C(NO)c1ccc(-c2ccc(CNCc3ccccc3)cn2)s1	7
O=C(CCCCCCC(=O)Nc1ccccc1)NO [VORINOSTAT]	3

Same assay, conditions: rat, hepatocytes

Compound	Hepatocyte stability [uL/min/10e6 cells]
O=C(NO)c1ccc(-c2ccc(CNCc3ccccc3)cn2)s1	27
O=C(CCCCCCC(=O)Nc1ccccc1)NO [VORINOSTAT]	12

Biological target: CYP2D6 (Homo sapiens, UniProt P10635)
Sequence (P10635 whole entry): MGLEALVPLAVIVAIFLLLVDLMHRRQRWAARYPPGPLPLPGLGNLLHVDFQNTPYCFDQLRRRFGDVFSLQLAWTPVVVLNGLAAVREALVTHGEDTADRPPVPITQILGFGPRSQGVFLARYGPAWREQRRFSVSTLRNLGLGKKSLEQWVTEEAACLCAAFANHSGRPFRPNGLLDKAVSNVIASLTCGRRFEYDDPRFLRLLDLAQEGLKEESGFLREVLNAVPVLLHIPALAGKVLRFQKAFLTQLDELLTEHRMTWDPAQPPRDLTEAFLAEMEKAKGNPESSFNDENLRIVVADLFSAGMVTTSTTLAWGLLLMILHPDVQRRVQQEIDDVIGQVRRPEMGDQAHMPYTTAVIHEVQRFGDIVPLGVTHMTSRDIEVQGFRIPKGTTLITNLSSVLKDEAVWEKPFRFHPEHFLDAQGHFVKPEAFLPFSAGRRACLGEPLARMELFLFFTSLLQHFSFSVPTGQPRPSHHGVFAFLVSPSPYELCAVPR
Experiment: Percent inhibition of CYP450 2D6 at 1uM concentration
Type: ADME
Settings: not given

Compound	inhibition at 1 µM [%]
O=C(NO)c1ccc(-c2ccc(CNCc3ccccc3)cn2)s1	1
O=C(CCCCCCC(=O)Nc1ccccc1)NO [VORINOSTAT]	8

Biological target: Cytochrome P450 3A4 (Homo sapiens, UniProt P08684)
Sequence (P08684 whole entry): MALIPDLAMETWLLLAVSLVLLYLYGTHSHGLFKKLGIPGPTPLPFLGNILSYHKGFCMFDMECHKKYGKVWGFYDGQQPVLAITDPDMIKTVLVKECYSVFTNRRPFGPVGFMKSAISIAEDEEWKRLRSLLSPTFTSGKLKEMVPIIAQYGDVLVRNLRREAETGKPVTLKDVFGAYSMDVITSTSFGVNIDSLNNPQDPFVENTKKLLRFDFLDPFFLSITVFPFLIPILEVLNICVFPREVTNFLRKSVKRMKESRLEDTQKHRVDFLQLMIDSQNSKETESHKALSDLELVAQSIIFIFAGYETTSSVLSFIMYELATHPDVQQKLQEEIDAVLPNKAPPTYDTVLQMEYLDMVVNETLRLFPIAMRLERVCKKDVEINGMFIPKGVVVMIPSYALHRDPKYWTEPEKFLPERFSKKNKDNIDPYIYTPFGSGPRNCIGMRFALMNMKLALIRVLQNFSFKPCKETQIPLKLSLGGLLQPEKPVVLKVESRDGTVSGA
Experiment: Inhibition of CYP450 3A4
Type: ADME
Settings: not given

Compound	IC50 [nM]
O=C(NO)c1ccc(-c2ccc(CNCc3ccccc3)cn2)s1	26000

Biological target: T1, CYP1A2 (Homo sapiens, UniProt P05177)
T1 sequence (P05177 whole entry): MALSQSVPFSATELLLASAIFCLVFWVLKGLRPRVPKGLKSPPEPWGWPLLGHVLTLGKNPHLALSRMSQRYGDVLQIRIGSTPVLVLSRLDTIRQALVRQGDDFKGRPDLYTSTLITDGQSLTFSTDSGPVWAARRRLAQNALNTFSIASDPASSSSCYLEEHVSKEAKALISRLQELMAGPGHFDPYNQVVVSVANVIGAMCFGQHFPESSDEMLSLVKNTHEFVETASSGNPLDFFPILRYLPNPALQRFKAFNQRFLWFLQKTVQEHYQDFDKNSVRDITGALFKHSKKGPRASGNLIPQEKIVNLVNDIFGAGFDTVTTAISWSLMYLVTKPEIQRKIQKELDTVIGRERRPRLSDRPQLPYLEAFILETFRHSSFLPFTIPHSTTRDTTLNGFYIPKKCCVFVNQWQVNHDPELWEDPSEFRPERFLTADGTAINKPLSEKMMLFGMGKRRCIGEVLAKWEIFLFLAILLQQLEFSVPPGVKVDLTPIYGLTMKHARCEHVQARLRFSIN
Experiment: Percent inhibition of CYP450 1A2 at 1 uM concentration
Type: ADME
Settings: not given

Compound	inhibition at 1 µM [%]
O=C(NO)c1ccc(-c2ccc(CNCc3ccccc3)cn2)s1	17
O=C(CCCCCCC(=O)Nc1ccccc1)NO [VORINOSTAT]	14

Biological target: Histone deacetylase 1 (Homo sapiens, UniProt Q13547)
Sequence (Q13547 whole entry): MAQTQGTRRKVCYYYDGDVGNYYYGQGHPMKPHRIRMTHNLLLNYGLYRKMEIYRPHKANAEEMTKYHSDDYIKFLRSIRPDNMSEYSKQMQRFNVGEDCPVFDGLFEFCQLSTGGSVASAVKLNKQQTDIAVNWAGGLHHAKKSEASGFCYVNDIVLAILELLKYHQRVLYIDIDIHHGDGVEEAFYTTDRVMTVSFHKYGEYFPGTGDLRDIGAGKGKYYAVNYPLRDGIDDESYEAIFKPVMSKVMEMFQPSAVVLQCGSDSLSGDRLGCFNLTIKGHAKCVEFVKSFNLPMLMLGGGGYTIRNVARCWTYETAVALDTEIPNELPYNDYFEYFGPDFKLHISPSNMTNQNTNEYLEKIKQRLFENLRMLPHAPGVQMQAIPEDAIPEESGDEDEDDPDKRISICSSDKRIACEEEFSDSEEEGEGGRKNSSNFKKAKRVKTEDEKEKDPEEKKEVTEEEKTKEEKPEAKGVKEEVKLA
Experiment: Inhibition of HDAC activity measured by HDAC Fluorescent Activity Assay (mean of two experiments)
Type: functional
Settings: not given

Compound	IC50 [nM]
O=C(NO)c1ccc(-c2ccc(CNCCc3ccc(F)cc3)cn2)s1	9
O=C(NO)c1ccc(-c2ccc(CNCCc3ccccc3F)cn2)s1	12
O=C(NO)c1ccc(-c2ccc(CNCc3ccc4c(c3)OCO4)cn2)s1	8
Cc1ccc(CCNCc2ccc(-c3ccc(C(=O)NO)s3)nc2)cc1	14
O=C(NO)c1ccc(-c2ccc(CCNCc3ccccc3)cn2)s1	9
O=C(NO)c1ccc(-c2ccc(CNCCc3cccc4occc34)cn2)s1	4
O=C(NO)c1ccc(-c2ccc(CNCCCc3ccccc3)cn2)s1	18
O=C(NO)c1ccc(-c2ccc(CNCCc3ccccc3)cn2)s1	12
O=C(NO)c1ccc(-c2ccc(CCNCc3ccc4c(c3)OCO4)cn2)s1	9

Further lines, results first:

IC50 [nM]	Compound
243	O=C(NO)c1ccc(-c2ccccn2)s1
16	O=C(NO)c1ccc(-c2ccc(CNCc3ccccc3)cn2)s1
35	CN(Cc1ccccc1)Cc1ccc(-c2ccc(C(=O)NO)s2)nc1
900	O=C(NO)c1ccc(-c2ccccc2)s1
2500	O=C(NO)c1ccc(-c2cccs2)s1
186	O=C(NO)c1ccc(-c2ncccn2)s1
581	O=C(NO)c1ccc(-c2cccc(CNCCc3ccccc3)n2)s1

Biological target: CYP2C9 (Homo sapiens, UniProt P11712)
Sequence (P11712 whole entry): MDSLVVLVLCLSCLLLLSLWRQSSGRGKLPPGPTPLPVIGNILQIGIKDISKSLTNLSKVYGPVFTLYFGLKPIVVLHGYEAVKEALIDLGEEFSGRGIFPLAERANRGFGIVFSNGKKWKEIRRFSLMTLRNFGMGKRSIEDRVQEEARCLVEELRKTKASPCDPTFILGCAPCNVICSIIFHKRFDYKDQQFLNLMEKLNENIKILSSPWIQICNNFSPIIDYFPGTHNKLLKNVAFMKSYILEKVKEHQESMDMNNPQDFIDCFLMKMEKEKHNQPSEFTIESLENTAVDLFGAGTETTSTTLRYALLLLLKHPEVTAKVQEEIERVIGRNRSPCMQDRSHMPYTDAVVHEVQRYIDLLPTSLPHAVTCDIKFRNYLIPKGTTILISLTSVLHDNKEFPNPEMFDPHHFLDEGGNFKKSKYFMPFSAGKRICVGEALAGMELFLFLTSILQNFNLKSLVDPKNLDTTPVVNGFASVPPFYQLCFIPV
Experiment: Percent inhibition of CYP450 2C9 at 1 uM concentration
Type: ADME
Settings: not given

Compound	inhibition at 1 µM [%]
O=C(NO)c1ccc(-c2ccc(CNCc3ccccc3)cn2)s1	-14
O=C(CCCCCCC(=O)Nc1ccccc1)NO [VORINOSTAT]	28

Biological target: CYP2C19 (Homo sapiens, UniProt P33261)
Sequence (P33261 whole entry): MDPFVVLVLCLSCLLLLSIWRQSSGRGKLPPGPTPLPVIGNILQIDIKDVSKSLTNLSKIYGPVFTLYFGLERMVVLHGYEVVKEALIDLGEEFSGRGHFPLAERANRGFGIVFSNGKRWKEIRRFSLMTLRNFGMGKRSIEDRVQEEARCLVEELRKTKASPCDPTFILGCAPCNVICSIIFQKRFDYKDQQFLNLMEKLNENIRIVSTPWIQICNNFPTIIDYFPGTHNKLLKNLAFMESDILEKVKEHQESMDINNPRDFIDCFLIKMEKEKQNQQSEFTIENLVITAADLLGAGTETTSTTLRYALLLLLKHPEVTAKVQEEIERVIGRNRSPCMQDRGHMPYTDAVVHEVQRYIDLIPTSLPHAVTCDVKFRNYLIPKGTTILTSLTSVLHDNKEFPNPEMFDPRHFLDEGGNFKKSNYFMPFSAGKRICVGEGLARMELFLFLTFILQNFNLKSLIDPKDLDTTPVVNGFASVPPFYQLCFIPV
Experiment: Percent inhibition of CYP450 2C19 at 1 uM concentration
Type: ADME
Settings: not given

Compound	inhibition at 1 µM [%]
O=C(NO)c1ccc(-c2ccc(CNCc3ccccc3)cn2)s1	-4
O=C(CCCCCCC(=O)Nc1ccccc1)NO [VORINOSTAT]	14

Tested on: not listed separately
Experiment: Half life after i.v. dosing at 1 mg kg-1
Type: ADME, organism-based
Parameters: dose 1 mg kg-1, route intravenous
Settings: mouse, in vivo, iv

Compound	half-life [min]
O=C(NO)c1ccc(-c2ccc(CNCc3ccccc3)cn2)s1	10.2
O=C(CCCCCCC(=O)Nc1ccccc1)NO [VORINOSTAT]	48

Same assay, conditions: rat, in vivo, iv

Compound	half-life [min]
O=C(NO)c1ccc(-c2ccc(CNCc3ccccc3)cn2)s1	162
O=C(CCCCCCC(=O)Nc1ccccc1)NO [VORINOSTAT]	42

Tested on: not listed separately
Experiment: Steady state volume of distribution (Vdss) after i.v. dosing at 1 mg kg-1
Type: ADME, organism-based
Parameters: dose 1 mg kg-1, route intravenous
Settings: mouse, in vivo, iv, read-out: Vdss

Compound	Vd [L/kg]
O=C(NO)c1ccc(-c2ccc(CNCc3ccccc3)cn2)s1	1.1
O=C(CCCCCCC(=O)Nc1ccccc1)NO [VORINOSTAT]	2.1

Same assay, conditions: rat, in vivo, iv, read-out: Vdss

Compound	Vd [L/kg]
O=C(NO)c1ccc(-c2ccc(CNCc3ccccc3)cn2)s1	2.9
O=C(CCCCCCC(=O)Nc1ccccc1)NO [VORINOSTAT]	1.6

Tested on: not listed separately
Experiment: Clearance after i.v. dosing at 1 mg kg-1
Type: ADME, organism-based
Parameters: dose 1 mg kg-1, route intravenous
Settings: mouse, in vivo, iv

Compound	clearance [mL/min/kg]
O=C(NO)c1ccc(-c2ccc(CNCc3ccccc3)cn2)s1	83
O=C(CCCCCCC(=O)Nc1ccccc1)NO [VORINOSTAT]	78

Same assay, conditions: rat, in vivo, iv

Compound	clearance [mL/min/kg]
O=C(NO)c1ccc(-c2ccc(CNCc3ccccc3)cn2)s1	13
O=C(CCCCCCC(=O)Nc1ccccc1)NO [VORINOSTAT]	67

Tested on: not listed separately
Experiment: (§1) AUC after oral dosing at 5 mg kg-1
Type: ADME, organism-based, Plasma
Parameters: dose 5 mg kg-1, route oral
Settings: mouse, plasma

Compound	AUC [ng·h/mL]
O=C(NO)c1ccc(-c2ccc(CNCc3ccccc3)cn2)s1	360
O=C(CCCCCCC(=O)Nc1ccccc1)NO [VORINOSTAT]	200

Tested on: not listed separately
Experiment: AUC after i.p. dosing at 5 mg kg-1
Type: ADME, organism-based
Parameters: dose 5 mg kg-1, route intraperitoneal
Settings: mouse, plasma, ip

Compound	AUC [ng·h/mL]
O=C(NO)c1ccc(-c2ccc(CNCc3ccccc3)cn2)s1	1250
O=C(CCCCCCC(=O)Nc1ccccc1)NO [VORINOSTAT]	600

Tested on: not listed separately
Experiment: Oral bioavailability after oral dosing at 5 mg kg-1
Type: ADME, organism-based
Settings: mouse, in vivo

Compound	bioavailability [%]
O=C(NO)c1ccc(-c2ccc(CNCc3ccccc3)cn2)s1	36
O=C(CCCCCCC(=O)Nc1ccccc1)NO [VORINOSTAT]	14

Same assay, conditions: rat, in vivo

Compound	bioavailability [%]
O=C(NO)c1ccc(-c2ccc(CNCc3ccccc3)cn2)s1	50
O=C(CCCCCCC(=O)Nc1ccccc1)NO [VORINOSTAT]	16

Tested on: not listed separately
Experiment: Bioavailability after i.p. dosing at 5 mg kg-1
Type: ADME, organism-based
Settings: mouse, in vivo, ip

Compound	bioavailability [%]
O=C(NO)c1ccc(-c2ccc(CNCc3ccccc3)cn2)s1	100
O=C(CCCCCCC(=O)Nc1ccccc1)NO [VORINOSTAT]	61

Tested on: not listed separately
Experiment: as §1
Type: ADME, organism-based
Parameters: dose 5 mg kg-1, route oral
Settings: rat, plasma

Compound	AUC [ng·h/mL]
O=C(NO)c1ccc(-c2ccc(CNCc3ccccc3)cn2)s1	3300
O=C(CCCCCCC(=O)Nc1ccccc1)NO [VORINOSTAT]	400
